Test results from patent US20030208067A1, “Inhibitors of protein kinase for the treatment of disease” (priority 2001, published 2003).

Tests used:
CDK5 complexed with p25 = CDK5 complexed with p25 (Homo sapiens, UniProt Q00535); test: Cyclin dependent kinase activity assay (33P peptide phosphorylation); format: biochemical; conditions: 0.1 mM ATP, read-out: CDK 5 Activity*
Method: (§1) The assay of cyclin dependent kinase activity was determined by monitoring the phosphorylation of a synthetic peptide, PKTPKKAKKLRRR. The assay mixture contained 0.1 mM cold ATP, ^33P-γ-ATP (2000-4000 cpm/μL), 0.1 mM peptide, 1 mM DDt, and 10 mM MgCl2 in 100 mM HEPES buffer pH 7.4. The assay mixture, along with inhibitor and CDK enzyme (0.3-0.4 U/mL; either CDK5 complexed with p25, CDK2 complexed with complexed with cyclin A), was mixed together in a microtiter plate in a final volume of 40 μL, sealed and incubated for 2 hours at 30° C. Following incubation, a 15 μL aliquot was added to a Whatman P81 filtration plate containing 100 μL 0.5% phosphoric acid. This mixture was allowed to stand for 5 minutes prior to filtration on a vacuum manifold. The filter plate was washed with 5 successive additions of 300 μL 0.5% phosphoric acid. The filtration plate was air dried for 10 minutes before sealing the bottom. After addition of scintillation fluid to the sealed plate, phosphorylated peptide was quantified in a scintillation counter.

[1] = target: CDK2 complexed with cyclin A (Homo sapiens, UniProt P24941); test: as above; format: biochemical; conditions: 0.1 mM ATP, read-out: CDK 2 Activity*
Method: as §1

A549/ATCC = test: In vitro tumor cell efficacy test (SRB cell viability); format: cell-based; conditions: Homo sapiens, Non-Small Cell Lung Cancer, 72 hours
panel of protein kinases = test: Specificity studies, summary in words; format: biochemical; conditions: against a panel of protein kinases
Method: The assays of kinases were determined by monitoring the phosphorylation of appropriate substrates. The assay mixture contained 0.1 mM cold ATP ^33P-γ-ATP (2000-4000 cpm/μL), 0.1 mM substrate, 1 mM DTT, and 10 mM MgCl2 in 100 mM HEPES buffer pH 7.4. The assay mixture, along with inhibitor and kinase enzyme (0.3-0.4 U/mL), was mixed together in a microtiter 96-well plate in a final volume of 40 μL, sealed and incbated for 1 hour at 30° C. Following incubation, a 15 μL aliquot was added to a Whatman P81 filtration plate containing 100 μL 0.5% phosphoric acid. This mixture was allowed to stand for 5 minutes prior to filtration on a vacuum manifold. The filter plate was washed with 5 successive additions of 300 μL 0.5% phosporic acid. The filtration plate was air dried for 10 minutes before sealing the bottom. After addition of scintillation fluid to the sealed plate, phosphorylated substrate was quantified in a scintillation counter.

KDR = KDR (Homo sapiens, UniProt P35968); test: Enzyme assay for EGFR2 (KDR); format: biochemical; conditions: 50 nM KDR; 500 μM ATP
Method: Enzyme assays for IC50 determinations were performed in 96-well titer plates, in a total reaction volume of 50 μL. Each reaction contained 1.5 μL of appropriate dilutions of inhibitor, 50 mM Hepes, pH 7.4, 1 mM DTT, 10 mM magnesium chloride, 2 mM phospho-poly(E4Y) (Sigma Chemical Company), 500 μM unlabeled ATP, 0.0025 μM [^33P]ATP (Amersham Pharmacia Biotech), and 50 nM KDR. All components except KDR were added to the wells, and the reaction was started by the addition of the enzyme. The reactions were mixed and incubated at room temperature for 1 hr, after which the reactions were quenched by the addition of 50 μL of 8% phosphoric acid. At this point, 90 μL aliquots of the samples were applied to positively charged DEAE 96-well filter plates (Millipore Corporation MADENOB10). The plates were incubated for 30 min at room temperature. The samples were aspirated and the wells were washed 3 times with 200 μL of 0.5% phosphoric acid. To each well, 50 μL of scintillation cocktail was added and counted for 60 sec in a TopCount microplate scintillation counter (Packard Instrument Company). The concentration of a compound that inhibited the activity of KDR by 50% (IC50) was determined based its inhibition curve.

CDK5 complexed with p25, sequence (Q00535 whole entry): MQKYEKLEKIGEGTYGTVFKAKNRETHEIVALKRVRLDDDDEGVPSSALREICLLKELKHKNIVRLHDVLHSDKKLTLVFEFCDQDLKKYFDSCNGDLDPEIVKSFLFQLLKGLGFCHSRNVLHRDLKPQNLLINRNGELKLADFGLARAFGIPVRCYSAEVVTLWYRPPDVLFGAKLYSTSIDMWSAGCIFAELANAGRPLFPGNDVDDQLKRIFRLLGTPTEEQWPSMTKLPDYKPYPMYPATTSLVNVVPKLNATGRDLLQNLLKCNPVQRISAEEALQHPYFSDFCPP
CDK5 complexed with p25, sequence (Q15078 99-307 partner limits assumed): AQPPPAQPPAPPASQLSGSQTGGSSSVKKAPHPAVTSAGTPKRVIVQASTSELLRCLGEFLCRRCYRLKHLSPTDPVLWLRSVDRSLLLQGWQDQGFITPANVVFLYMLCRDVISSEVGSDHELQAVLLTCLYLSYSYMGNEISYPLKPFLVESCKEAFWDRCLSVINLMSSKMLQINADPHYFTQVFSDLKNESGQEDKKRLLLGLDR
KDR, sequence (P35968 20-1356, species assumed): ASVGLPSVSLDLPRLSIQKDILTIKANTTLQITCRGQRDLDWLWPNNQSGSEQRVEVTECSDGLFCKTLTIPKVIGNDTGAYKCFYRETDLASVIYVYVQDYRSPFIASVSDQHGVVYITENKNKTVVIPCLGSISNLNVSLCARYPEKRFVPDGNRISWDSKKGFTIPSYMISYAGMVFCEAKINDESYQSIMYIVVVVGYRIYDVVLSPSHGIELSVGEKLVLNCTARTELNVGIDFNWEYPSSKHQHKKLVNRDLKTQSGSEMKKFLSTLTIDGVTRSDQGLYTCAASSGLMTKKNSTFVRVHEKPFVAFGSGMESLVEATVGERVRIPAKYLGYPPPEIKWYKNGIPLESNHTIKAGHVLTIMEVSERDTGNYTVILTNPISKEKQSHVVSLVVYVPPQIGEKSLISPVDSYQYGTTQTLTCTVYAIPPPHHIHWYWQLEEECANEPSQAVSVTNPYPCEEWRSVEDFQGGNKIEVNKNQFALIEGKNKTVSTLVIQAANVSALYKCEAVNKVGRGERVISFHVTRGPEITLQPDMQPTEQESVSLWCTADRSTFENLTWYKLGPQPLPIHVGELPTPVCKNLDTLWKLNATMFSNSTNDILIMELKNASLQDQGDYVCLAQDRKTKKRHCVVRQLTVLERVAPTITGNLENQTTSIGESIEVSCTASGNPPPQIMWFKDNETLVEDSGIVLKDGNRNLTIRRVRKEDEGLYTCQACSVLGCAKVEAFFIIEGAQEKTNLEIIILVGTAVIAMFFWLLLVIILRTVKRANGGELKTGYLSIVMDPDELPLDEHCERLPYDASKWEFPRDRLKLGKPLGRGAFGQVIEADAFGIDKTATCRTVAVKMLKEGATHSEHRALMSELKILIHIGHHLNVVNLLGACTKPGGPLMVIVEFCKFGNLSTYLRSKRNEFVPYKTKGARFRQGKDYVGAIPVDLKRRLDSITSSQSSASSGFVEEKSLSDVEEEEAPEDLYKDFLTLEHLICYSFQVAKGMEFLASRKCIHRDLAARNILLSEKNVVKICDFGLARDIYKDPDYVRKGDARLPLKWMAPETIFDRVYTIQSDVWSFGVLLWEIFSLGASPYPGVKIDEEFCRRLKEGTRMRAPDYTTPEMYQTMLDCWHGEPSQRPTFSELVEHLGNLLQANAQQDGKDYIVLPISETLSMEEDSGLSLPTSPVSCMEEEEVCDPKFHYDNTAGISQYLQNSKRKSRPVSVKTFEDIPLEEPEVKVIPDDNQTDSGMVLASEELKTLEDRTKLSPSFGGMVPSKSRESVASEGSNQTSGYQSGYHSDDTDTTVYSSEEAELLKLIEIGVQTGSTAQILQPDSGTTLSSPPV

Row | IC50 (CDK5 complexed with p25) | IC50 [1] | IC50 (KDR) | SMILES | LC50 (A549/ATCC) | specificity for CDK5 and CDK2 (panel of protein kinases)
1 | > 5000 nM | 500 to 2000 nM | – | NC(=O)/C=C/c1ccc(O)c(/C=N/NC(N)=S)c1 [Example 39, 3-Formyl-4-hydroxycinnamide, Thiosemicarbazone] | – | –
2 | – | – | – | Nc1nccc(-c2cc(-c3ccc(O)cc3)ccc2O)n1 [3-(2-Amino-pyrimidin-4-yl)-biphenyl-4,4′-diol] | > 100000 nM | highly specific
3 | < 500 nM | – | 1000 to 20000 nM | Nc1nc(-c2cc(-c3ccc(O)cc3)ccc2O)cc(N2CCCC2CO)n1 (stereo in doubt) [Example 79, 3-[2-Amino-6-(2R-hydroxymethyl-pyrrolidin-1-yl)-pyrimidin-4-yl]-biphenyl-4,4′-diol] | – | –
4 | 500 to 2000 nM | 2000 to 5000 nM | – | NC(=S)N/N=C/c1cc(-c2ccc(CO)cc2)ccc1O [Example 10, 5-(4-Hydroxymethylphenyl)salicylaldehyde Thiosemicarbazone] | – | –
